Assay results: patent publication US10000512B2, “Compounds for the treatment of infectious diseases” (Hoffmann-La Roche Inc., priority 2014, dated 2018)

Tests used:
human TLR7 = biological target: T1, human TLR7 (Homo sapiens, UniProt Q9NYK1); assay: HEK293-Blue-hTLR-7 cells assay (SEAP reporter); format: cell-based; details: 20 hours incubation
T1 sequence (Q9NYK1 27-1049): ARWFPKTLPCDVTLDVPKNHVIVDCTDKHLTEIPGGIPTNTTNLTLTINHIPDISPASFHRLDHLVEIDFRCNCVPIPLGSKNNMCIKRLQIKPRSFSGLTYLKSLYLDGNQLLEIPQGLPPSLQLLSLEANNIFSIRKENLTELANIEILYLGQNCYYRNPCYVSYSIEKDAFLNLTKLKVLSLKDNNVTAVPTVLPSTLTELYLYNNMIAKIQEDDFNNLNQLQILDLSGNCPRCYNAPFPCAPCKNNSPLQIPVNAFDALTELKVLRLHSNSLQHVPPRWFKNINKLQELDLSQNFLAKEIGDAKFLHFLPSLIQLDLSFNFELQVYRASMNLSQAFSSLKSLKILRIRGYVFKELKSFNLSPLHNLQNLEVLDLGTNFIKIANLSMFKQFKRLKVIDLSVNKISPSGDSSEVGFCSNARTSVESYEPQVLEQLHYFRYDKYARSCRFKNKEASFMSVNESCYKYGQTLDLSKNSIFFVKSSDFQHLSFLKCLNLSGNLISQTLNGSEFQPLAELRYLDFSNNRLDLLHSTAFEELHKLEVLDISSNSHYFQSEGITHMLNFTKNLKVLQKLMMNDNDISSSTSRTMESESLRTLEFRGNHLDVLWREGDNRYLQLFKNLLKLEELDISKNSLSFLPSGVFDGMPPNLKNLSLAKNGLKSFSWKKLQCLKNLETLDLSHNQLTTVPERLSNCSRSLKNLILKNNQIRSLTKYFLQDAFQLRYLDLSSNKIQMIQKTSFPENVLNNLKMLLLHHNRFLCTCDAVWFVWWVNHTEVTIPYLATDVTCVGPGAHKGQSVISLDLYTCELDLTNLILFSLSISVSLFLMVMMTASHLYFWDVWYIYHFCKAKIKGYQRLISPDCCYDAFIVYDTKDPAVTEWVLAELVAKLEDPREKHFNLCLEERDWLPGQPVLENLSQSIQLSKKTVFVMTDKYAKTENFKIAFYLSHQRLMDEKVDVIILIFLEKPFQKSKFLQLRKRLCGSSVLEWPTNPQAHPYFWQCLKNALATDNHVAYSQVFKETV
Text: A stable HEK293-Blue-hTLR-7 cell line was purchased from InvivoGen (Cat.#: hkb-ht1r7, San Diego, Calif., USA). These cells were designed for studying the stimulation of human TLR7 by monitoring the activation of NF-κB. A SEAP (secreted embryonic alkaline phosphatase) reporter gene was placed under the control of the IFN-β minimal promoter fused to five NF-κB and AP-1-binding sites. The SEAP was induced by activating NF-κB and AP-1 via stimulating HEK-Blue hTLR7 cells with TLR7 ligands. Therefore the reporter expression was regulated by the NF-κB promoter upon stimulation of human TLR7 for 20 hours. The cell culture supernatant SEAP reporter activity was determined using QUANTI-Blue™ kit (Cat.#: rep-qb1, Invivogen, San Diego, Calif., USA) at a wavelength of 640 nm, a detection medium that turns purple/blue in the presence of alkaline phosphatase.
HEK293-Blue-hTLR7 cells were incubated at a density of 250,000˜450,000 cells/mL in a volume of 180 μL in a 96-well plate in Dulbecco's Modified Eagle's medium (DMEM) containing 4.5 g/L glucose, 50 U/mL penicillin, […] streptomycin, […] Normocin, 2 mM L-glutamine, 10% (v/v) heat-inactivated fetal bovine serum for 24 h. Then the HEK293-Blue-hTLR-7 cells were incubated with addition of 20 μL test compound in a serial dilution in the presence of final DMSO at 1% and perform incubation under 37° C. in a CO2 incubator for 20 hours. Then 20 μL of the supernatant from each well was incubated with 180 μL Quanti-blue substrate solution at 37° C. for 2 h and the absorbance was read at 620˜655 nm using a spectrophotometer. The signalling pathway that TLR7 activation leads to downstream NF-κB activation has been widely accepted, and therefore similar reporter assay was also widely used for evaluating TLR7 agonist (Tsuneyasu Kaisho and Takashi Tanaka, Trends in Immunology, Volume 29, Issue 7, July 2008, […]; Hiroaki Hemmi et al, Nature Immunology 3, 196-200 (2002).

murine TLR7 = biological target: T2, murine TLR7 (Mus musculus, UniProt P58681); assay: HEK293-Blue-mTLR7 assay (SEAP reporter); format: cell-based; details: HEK293-Blue-mTLR7 cells, 20 hours, Quanti-Blue; read-out: EC50 murine TLR7 activation
T2 sequence (P58681 27-1050): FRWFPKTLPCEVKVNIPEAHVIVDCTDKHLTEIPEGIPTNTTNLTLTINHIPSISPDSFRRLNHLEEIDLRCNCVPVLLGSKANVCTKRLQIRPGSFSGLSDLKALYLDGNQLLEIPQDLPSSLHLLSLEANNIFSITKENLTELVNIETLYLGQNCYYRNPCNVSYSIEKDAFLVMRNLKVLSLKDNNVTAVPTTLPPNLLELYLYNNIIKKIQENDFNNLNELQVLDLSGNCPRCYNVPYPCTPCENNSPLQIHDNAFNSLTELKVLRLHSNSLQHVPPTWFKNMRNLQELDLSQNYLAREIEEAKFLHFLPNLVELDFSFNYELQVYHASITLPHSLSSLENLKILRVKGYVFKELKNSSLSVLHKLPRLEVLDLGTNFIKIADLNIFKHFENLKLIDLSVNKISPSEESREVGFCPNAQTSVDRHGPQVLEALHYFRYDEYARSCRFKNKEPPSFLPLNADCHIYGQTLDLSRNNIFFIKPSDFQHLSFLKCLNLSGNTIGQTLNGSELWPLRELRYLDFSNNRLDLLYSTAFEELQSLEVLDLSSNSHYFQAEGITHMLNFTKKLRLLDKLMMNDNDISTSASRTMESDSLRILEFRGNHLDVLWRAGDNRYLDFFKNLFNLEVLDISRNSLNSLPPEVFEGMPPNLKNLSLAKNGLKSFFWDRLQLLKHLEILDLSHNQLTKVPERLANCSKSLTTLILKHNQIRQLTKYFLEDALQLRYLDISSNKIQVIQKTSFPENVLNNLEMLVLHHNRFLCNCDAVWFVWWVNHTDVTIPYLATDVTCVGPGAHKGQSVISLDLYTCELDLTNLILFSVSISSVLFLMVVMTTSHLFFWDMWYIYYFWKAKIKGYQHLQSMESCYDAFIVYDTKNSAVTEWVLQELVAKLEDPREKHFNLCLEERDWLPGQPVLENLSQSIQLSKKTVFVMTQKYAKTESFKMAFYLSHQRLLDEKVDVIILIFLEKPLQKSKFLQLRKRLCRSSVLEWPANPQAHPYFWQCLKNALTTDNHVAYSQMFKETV
Experimental: The potency of the TLR7 agonist Example 4-A was assessed in murine TLR7 activation using a stable HEK293-Blue-mTLR7 cell line purchased from InvivoGen (Cat.#: hkb-mt1r7, San Diego, Calif., USA). Similar to the HEK293-Blue-hTLR7 as described in Example 26, the HEK293-Blue-mTLR7 was designed for studying the stimulation of murine TLR7 by monitoring the activation of NF-κB. A SEAP reporter gene was placed under the control of the IFN-β minimal promoter fused to five NF-κB and AP-1-binding sites. SEAP expression was induced by the activation of NF-κB and AP-1 upon stimulation of murine TLR7 with TLR7 ligands. SEAP expression in cell culture supernatant was determined using QUANTI-Blue™ kit (Cat.#: rep-qb1, Invivogen, San Diego, Ca, USA) at a wavelength of 640 nm, a detection medium that turns purple/blue in the presence of alkaline phosphatase.
HEK293-Blue-mTLR7 cells were incubated at a density of 250,000˜450,000 cells/mL in a volume of 180 μL in a 96-well plate in Dulbecco's Modified Eagle's medium (DMEM) containing 4.5 g/L glucose, 50 U/mL penicillin, […], […], 2 mM L-glutamine, 10% (v/v) heat-inactivated fetal bovine serum for 24 h. […] Then 20 μL of the supernatant from each well was incubated with 180 μl Quanti-blue substrate solution at 37° C. for 2 hours and the absorbance was read at 640 nm using a spectrophotometer.

- EC50 (human TLR7): 7.9 µM
- EC50 (murine TLR7): 7.8 µM
Structure (SMILES): Nc1nc2c(sc(=O)n2[C@H]2CS[C@@H](C(O)C3CC3)O2)c(=O)[nH]1 (single isomer, unassigned) [Example 4-A]
